One assay relates to T. cruzi. Briefly: T. cruzi growth inhibition. Format: cell-based, Trypanosoma cruzi. Conditions: read-out: (E) T. cruzi EC50.
In assay [1] the test system is E. faecium VRE (ATCC 51559). Kind of assay: MIC susceptibility testing. It counts as cell-based, Enterococcus faecium. Conditions: E. faecium ATCC 51559; for MIC: Enterococcus faecium, read-out: (I) E. faecium (ATCC 51559) MIC. In a few lines:
(§1)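 CLSI broth microdilution in triplicate, 5×10^5 CFU/mL final, ≤0.5% DMSO; MHB for S. aureus, CA-MHB for E. coli and E. faecium, CA-MHB plus 3% laked horse blood for S. pyogenes (5% CO2).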

The subject of assay [2] is G. lamblia (ATCC GL50803). Briefly: G. lamblia growth inhibition. It counts as cell-based. The conditions noted are these: Giardia duodenalis, read-out: (K) G. lamblia (ATCC GL50803) EC50.
Assay [3] deals with S. aureus MSSA (ATCC 29213). Kind of assay: MIC susceptibility testing. It counts as cell-based, Staphylococcus aureus. Conditions: S. aureus ATCC 29213.
Assay [4] deals with S. aureus MRSA (ATCC 33591). Briefly: MIC susceptibility testing. It counts as cell-based, Staphylococcus aureus. Conditions: Staphylococcus aureus, MRSA ATCC33591; read-out: (G) MRSA (ATCC33591) MIC. The procedure, abridged: as §1
The test system of another assay is C. parvum. Kind of assay: C. parvum growth inhibition. Conditions: read-out: (J) C. parvum EC50. It counts as cell-based, Cryptosporidium parvum.
Another assay deals with MetRS (C. parvum) (Cryptosporidium parvum, UniProt Q5CVN0). Kind of assay: MetRS (C. parvum) enzyme inhibition. The conditions noted are these: read-out: (C) MetRS (C. parvum) IC50. It counts as biochemical.
Sequence of MetRS (C. parvum) (Q5CVN0 entry or part of it): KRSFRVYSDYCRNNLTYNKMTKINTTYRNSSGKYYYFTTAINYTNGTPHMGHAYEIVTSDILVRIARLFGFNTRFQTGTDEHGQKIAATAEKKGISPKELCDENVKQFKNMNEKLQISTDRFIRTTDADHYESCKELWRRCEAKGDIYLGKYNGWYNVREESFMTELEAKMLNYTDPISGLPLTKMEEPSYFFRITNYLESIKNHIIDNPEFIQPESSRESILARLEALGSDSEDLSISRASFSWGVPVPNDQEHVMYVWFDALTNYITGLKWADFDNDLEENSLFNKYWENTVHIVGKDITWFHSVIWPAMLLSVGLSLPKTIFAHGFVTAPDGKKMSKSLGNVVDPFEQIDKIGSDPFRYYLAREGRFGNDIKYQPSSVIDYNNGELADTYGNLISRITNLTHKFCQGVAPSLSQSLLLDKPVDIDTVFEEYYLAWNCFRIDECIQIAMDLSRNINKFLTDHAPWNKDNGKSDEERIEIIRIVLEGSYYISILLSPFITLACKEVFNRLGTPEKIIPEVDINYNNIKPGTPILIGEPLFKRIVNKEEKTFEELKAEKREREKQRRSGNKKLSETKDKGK
The next assay concerns T. brucei. Kind of assay: T. brucei growth inhibition. It counts as cell-based, Trypanosoma brucei. Conditions: read-out: (D) T. brucei EC50.

Three compounds from patent US11584744B2 (UNIVERSITY OF WASHINGTON, priority 2017, dated 2023) can be followed below.

Values after ≈ are worked out from the molar mass of the structure shown. Like-named read-outs stand apart in the source and are kept apart here.

For `COc1ccc(-c2cccc3c2CN(Cc2nc4nc(Cl)ccc4[nH]2)C3=O)c(Cl)c1` [Compound 2230, 2-((5-chloro-1H-imidazo[4,5-b]pyridin-2-yl)methyl)-4-(2-chloro-4-methoxyphenyl)isoindolin-1-one], the EC50 in the assay with T. cruzi (Trypanosoma cruzi) amounted to 28 nM; in the assay with T. cruzi, 39.6 nM; in assay [2], 10 nM; with C. parvum (Cryptosporidium parvum), 211 nM; in the assay on C. parvum, 196 nM. Also, the “(I) E. faecium (ATCC 51559) MIC” value in assay [1] turned out to be 0.134 µg/mL. Besides, the MIC in assay [1] amounted to 0.0765 µg/mL (≈ 0.174 µM); in assay [3] (Staphylococcus aureus, read-out: (F) S. aureus (ATCC 29213) MIC), 0.393 µg/mL (≈ 0.895 µM); in assay [4], 0.165 µg/mL (≈ 0.376 µM). In addition, the “(F) S. aureus (ATCC 29213) MIC” value in assay [3] worked out at 0.304 µg/mL. For the same compound, the IC50 on MetRS (C. parvum) is less than 40 nM.
On to `COc1cc(Cl)c(Cc2cn(Cc3nc4nc(Cl)ccc4[nH]3)c(=O)n2CC(C)(C)O)cc1OC` [Compound 2240, 1-({5-chloro-1H-imidazo[4,5-b]pyridin-2-yl}methyl)-4-[(2-chloro-4,5-dimethoxyphenyl)methyl]-3-(2-hydroxy-2-methylpropyl)-2,3-dihydro-1H-imidazol-2-one], for which the EC50 was 5.7 nM in the assay on T. cruzi (Trypanosoma cruzi); 6.83 nM in the assay with T. cruzi; less than 0.91 nM with T. brucei (Trypanosoma brucei); 0.68 nM in the assay with T. brucei; 20 nM in assay [2]. Also, the “(I) E. faecium (ATCC 51559) MIC” value in assay [1] was 0.0122 µg/mL. Moreover, the MIC is 0.0141 µg/mL (≈ 0.0278 µM) in assay [1] and 0.0578 µg/mL (≈ 0.114 µM) in assay [4]. Besides, the IC50 on MetRS (C. parvum) is less than 40 nM.
For the compound `COc1ccc(Cc2cn(Cc3nc4c(Cl)c(Cl)ccc4[nH]3)c(=O)n2CC(C)(C)O)c(Cl)c1` [Compound 2242, 4-[(2-chloro-4-methoxyphenyl)methyl]-1-[(6,7-dichloro-1H-1,3-benzodiazol-2-yl)methyl]-3-(2-hydroxy-2-methylpropyl)-2,3-dihydro-1H-imidazol-2-one], the EC50 was found to be 112 nM with T. cruzi (Trypanosoma cruzi); 8.97 nM in the assay on T. brucei (Trypanosoma brucei); 11.8 nM in the assay on T. brucei; 50 nM in assay [2]; 531 nM with C. parvum (Cryptosporidium parvum); 800 nM with C. parvum. Further, in assay [1], the “(I) E. faecium (ATCC 51559) MIC” value came out at 0.847 µg/mL. For the same compound, the MIC is 0.599 µg/mL (≈ 1.17 µM) in assay [1] and 1.81 µg/mL (≈ 3.55 µM) in assay [4]. Besides, at MetRS (C. parvum), the IC50 was less than 40 nM.

One may read the EC50 as the concentration needed to bring the measured effect to its halfway point. Broadly, the MIC is the lowest concentration found to suppress growth. For orientation: IC50 means the concentration that inhibits the measured activity by half.
